Columns and labels:
[1] = target: T1, Human FXIa (Homo sapiens, UniProt P03951); assay: FXIa inhibitory activity in vitro (fluorogenic substrate Z-Gly-Pro-Arg-AFC), selectivity; type: biochemical; settings: category scale, 25° C.
T1 construct: Human FXIa (Enzyme Research Laboratories) was incubated; purchased Enzyme Research Laboratories
Procedure: Determination of the % Inhibition for FXIa
Human FXIa (Enzyme Research Laboratories) was incubated at 25° C. with the fluorogenic substrate Z-Gly-Pro-Arg-AFC and various concentrations of the test compound. Residual enzyme activity (initial rate of reaction) was determined by measuring the change in fluorescence at 410 nm and the IC50 value for the test compound was determined.

[2] = target: T2, Human Factor XIIa (Homo sapiens, UniProt P00748); assay: Factor XIIa inhibitory activity in vitro (fluorogenic substrate H-DPro-Phe-Arg-AFC); type: biochemical; settings: 25° C., class symbols, read-out: Human FXIIa IC50
T2 construct: purchased Enzyme Research Laboratories
T2 sequence (P00748 373-615 limits assumed): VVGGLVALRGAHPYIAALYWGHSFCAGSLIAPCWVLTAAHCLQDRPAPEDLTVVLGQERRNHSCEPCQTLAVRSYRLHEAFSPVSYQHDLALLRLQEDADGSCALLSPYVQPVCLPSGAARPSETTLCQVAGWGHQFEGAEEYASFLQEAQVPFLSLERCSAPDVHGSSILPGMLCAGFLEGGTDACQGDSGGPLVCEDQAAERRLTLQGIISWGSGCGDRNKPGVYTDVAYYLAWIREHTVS
How it was run: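 Enzyme incubated at 25° C with fluorogenic substrate H-DPro-Phe-Arg-AFC and a range of compound concentrations. Residual activity taken as initial reaction rate from […], giving IC50.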

T1 sequence (P03951 388-625 limits assumed): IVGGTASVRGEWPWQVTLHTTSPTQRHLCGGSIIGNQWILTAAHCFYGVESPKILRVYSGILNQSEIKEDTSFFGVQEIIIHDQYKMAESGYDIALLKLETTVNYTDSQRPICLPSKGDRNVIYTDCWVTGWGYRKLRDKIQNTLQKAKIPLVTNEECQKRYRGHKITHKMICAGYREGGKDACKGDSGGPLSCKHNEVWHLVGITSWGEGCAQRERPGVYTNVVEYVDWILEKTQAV
T1 sequence (P03951 19-387 partner limits assumed): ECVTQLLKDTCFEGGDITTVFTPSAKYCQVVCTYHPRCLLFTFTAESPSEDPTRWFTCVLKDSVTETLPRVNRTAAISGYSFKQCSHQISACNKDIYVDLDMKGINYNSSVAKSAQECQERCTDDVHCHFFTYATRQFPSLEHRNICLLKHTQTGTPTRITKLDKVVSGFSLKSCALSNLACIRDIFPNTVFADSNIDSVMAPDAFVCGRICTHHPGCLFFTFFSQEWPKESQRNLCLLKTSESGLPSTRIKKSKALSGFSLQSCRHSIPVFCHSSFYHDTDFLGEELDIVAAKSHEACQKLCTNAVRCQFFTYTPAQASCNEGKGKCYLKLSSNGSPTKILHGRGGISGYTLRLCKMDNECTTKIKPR

Structure (SMILES)	IC50 [1] [µM]	IC50 [2] [µM]
COc1cc2c(N)nccc2cc1CNC(=O)[C@H](C)NC(=O)[C@H](N)CCc1ccccc1 [Example 6.22]	3 to 10	10 to 40
C[C@H](NC(=O)[C@@H](CCc1ccccc1)N1CCCC1)C(=O)NCc1ccc2c(N)nccc2c1 [Example 6.23]	> 40	0.1 to 0.279
C[C@H](NC(=O)[C@H](O)CCc1ccccc1)C(=O)NCc1ccc2c(N)nccc2c1 [Example 6.24]	10 to 40	10 to 40
C[C@H](NC(=O)[C@@H](CCc1ccccc1)NC(=O)OC(C)(C)C)C(=O)NCc1ccc2c(N)nccc2c1 [Example 6.25]	10 to 40	3 to 10
C[C@H](NC(=O)[C@H](N)CCc1ccccc1)C(=O)NCc1cnc2[nH]cc(Cl)c2c1 [Example 9.01]	10 to 40	0.28 to 1
C[C@H](NC(=O)[C@H](N)CCc1ccccc1)C(=O)N[C@@H]1CCc2c1ccnc2N [Example 9.02]	> 40	0.28 to 1
CC(C)N[C@H](CCc1ccccc1)C(=O)N[C@@H](C)C(=O)NCc1cnc2[nH]cc(Cl)c2c1 [Example 9.03]	> 40	1 to 3
C[C@H](NC(=O)[C@H](N)CCc1ccccc1)C(=O)NCc1ccc2[nH]cc(Cl)c2c1 [Example 9.04]	> 40	3 to 10
COc1ccc(-n2ccc(C(F)(F)F)n2)c(CNC(=O)[C@H](C)NC(=O)[C@@H](N)CCc2ccccc2)c1F [Example 9.05]	1 to 3	10 to 40
Cc1c(CNC(=O)[C@H](C)NC(=O)[C@H](N)CCc2ccccc2)ccc2c(N)nccc12 [Example 9.06]	10 to 40	0.1 to 0.279
C[C@H](NC(=O)[C@H](N)CCc1ccccc1)C(=O)NCc1cc2c(N)nccc2s1 [Example 9.07, (2R)—N-[(1S)-1-[({4-Aminothieno[3,2-c]pyridin-2-yl}methyl)carbamoyl]ethyl]-2-amino-4-phenylbutanamide]	> 40	0.1 to 0.279
CC(C)N[C@H](CCc1ccccc1)C(=O)N[C@@H](C)C(=O)NCc1ccc2[nH]cc(Cl)c2c1 [Example 9.08]	10 to 40	1 to 3
CC(C)N[C@H](CCc1ccccc1)C(=O)N[C@@H](C)C(=O)NCc1cc2c(N)nccc2o1 [Example 9.24]	> 40	0.1 to 0.279
CC(C)N[C@H](CCc1ccccc1)C(=O)N[C@@H](C)C(=O)NCc1cc2c(N)nccc2s1 [Example 9.27, (2R)—N-[(1S)-1-[({4-Aminothieno[3,2-c]pyridin-2-yl}methyl)carbamoyl]ethyl]-2-(isopropylamino)-4-phenylbutanamide]	> 40	0.03 to 0.1

Now from value to molecule:

IC50 [1] [µM]	IC50 [2] [µM]	Structure (SMILES)
10 to 40	0.03 to 0.1	CC(C)N[C@H](CCCCN1CCCCC1)C(=O)N1CC[C@H]1C(=O)NCc1ccc2[nH]cc(Cl)c2c1 [Example 10.01, (2S)—N-[(3-Chloro-1H-indol-5-yl)methyl]-1-[(2R)-2-(isopropylamino)-6-(piperidin-1-yl)hexanoyl]azetidine-2-carboxamide]
> 40	0.28 to 1	N[C@H](CCc1ccccc1)C(=O)N1CCC1C(=O)NCc1cnc2[nH]cc(Cl)c2c1 (stereo partly drawn) [Example 10.02]
> 40	0.28 to 1	N[C@H](CCCCN1CCOCC1)C(=O)N1CC[C@H]1C(=O)NCc1cnc2[nH]cc(Cl)c2c1 [Example 10.03]
> 40	0.28 to 1	N[C@H](CCCCN1CCC(F)(F)C1)C(=O)N1CC[C@H]1C(=O)NCc1cnc2[nH]cc(Cl)c2c1 [Example 10.04]
> 40	0.28 to 1	CC(C)N[C@H](CCCCN1CCOCC1)C(=O)N1CC[C@H]1C(=O)NCc1cnc2[nH]cc(Cl)c2c1 [Example 10.05]
> 40	10 to 40	N[C@H](CCCCO)C(=O)N1CC[C@H]1C(=O)NCc1ccc2[nH]cc(Cl)c2c1 [Example 10.06]
> 40	0.28 to 1	CC(C)N[C@H](CCCCN1CCCCC1)C(=O)N1C[C@@H](c2ccc(F)c(F)c2)[C@H]1C(=O)NCc1ccc2[nH]cc(Cl)c2c1 [Example 10.07]
> 40	3 to 10	N[C@H](CCCCN1CCN(c2ncccn2)CC1)C(=O)N1CC[C@H]1C(=O)NCc1ccc2[nH]cc(Cl)c2c1 [Example 10.08]
> 40	1 to 3	N[C@H](CCCCN1CCc2ccccc2C1)C(=O)N1CC[C@H]1C(=O)NCc1ccc2[nH]cc(Cl)c2c1 [Example 10.09]
> 40	1 to 3	N[C@H](CCCCN1Cc2ccccc2C1)C(=O)N1CC[C@H]1C(=O)NCc1ccc2[nH]cc(Cl)c2c1 [Example 10.10]
10 to 40	0.28 to 1	CC(C)N[C@H](CCCCN1Cc2ccccc2C1)C(=O)N1CC[C@H]1C(=O)NCc1ccc2[nH]cc(Cl)c2c1 [Example 10.11]
> 40	1 to 3	N[C@H](CCCCN1CCC(F)(F)CC1)C(=O)N1CC[C@H]1C(=O)NCc1ccc2[nH]cc(Cl)c2c1 [Example 10.12]
> 40	3 to 10	N[C@H](CCCCn1ccnc1)C(=O)N1CC[C@H]1C(=O)NCc1ccc2[nH]cc(Cl)c2c1 [Example 10.13]
> 40	10 to 40	N[C@H](CCCCN1CCc2ccccc21)C(=O)N1CC[C@H]1C(=O)NCc1ccc2[nH]cc(Cl)c2c1 [Example 10.14]
> 40	3 to 10	N[C@H](CCCCN1CCCC(F)(F)C1)C(=O)N1CC[C@H]1C(=O)NCc1ccc2[nH]cc(Cl)c2c1 [Example 10.15]
> 40	10 to 40	O=C(NCc1ccc2[nH]cc(Cl)c2c1)[C@@H]1CCN1C(=O)CCCCCN1CCCCC1 [Example 10.16]
10 to 40	10 to 40	CC(C)N[C@H](COc1ccccc1)C(=O)N1CCC1C(=O)NCc1ccc2[nH]cc(Cl)c2c1 (stereo partly drawn) [Example 10.17]
10 to 40	10 to 40	CC(C)N[C@H](Cc1c[nH]c2ccccc12)C(=O)N1CC[C@H]1C(=O)NCc1ccc2[nH]cc(Cl)c2c1 [Example 10.18]
> 40	0.03 to 0.1	Nc1nccc2cc(CNC(=O)[C@H](Cc3ccc(F)c(F)c3)NC(=O)[C@H](N)CCCCN3CCCCC3)ccc12 [Example 12.01]
10 to 40	0.28 to 1	CC(C)N[C@H](CCCCN1CCCCC1)C(=O)N[C@@H](C)C(=O)NCc1ccc2c(N)nccc2c1 [Example 12.02]
> 40	< 0.03	CC(C)N[C@H](CCCCN1CCCCC1)C(=O)N[C@@H](Cc1ccc(F)c(F)c1)C(=O)NCc1ccc2c(N)nccc2c1 [Example 12.03]
10 to 40	0.28 to 1	CC(C)N[C@H](CCCN1CCCCC1)C(=O)N[C@@H](Cc1ccc(F)c(F)c1)C(=O)NCc1ccc2c(N)nccc2c1 [Example 12.04]
3 to 10	0.03 to 0.1	CC(C)N[C@H](CCCCN1CCCCC1)C(=O)N[C@@H](Cc1c[nH]c2ccccc12)C(=O)NCc1ccc2c(N)nccc2c1 [Example 12.05]
3 to 10	< 0.03	CC(C)N[C@H](CCCCN1CCCCC1)C(=O)N[C@@H](Cc1cccc2ccccc12)C(=O)NCc1ccc2c(N)nccc2c1 [Example 12.06, (2R)—N-[(1S)-1-{[(1-Aminoisoquinolin-6-yl)methyl]carbamoyl}-2-(naphthalen-1-yl)ethyl]-2-(isopropylamino)-6-(piperidin-1-yl)hexanamide]
1 to 3	< 0.03	CC(C)N[C@H](CCCCN1CCCCC1)C(=O)N[C@@H](Cc1csc2ccccc12)C(=O)NCc1ccc2c(N)nccc2c1 [Example 12.07]
